What was measured:
[1] = target: human liver microsomal cytochrome P450 2E1 (CYP2E1) (Homo sapiens, UniProt P05181); experiment: Human liver microsomal CYP2E1, chlorzoxazone 6-hydroxylation;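 further: chlorzoxazone added as substrate, 6-hydroxychlorzoxazone formation quantified by LC/MS/MS after 30 min at 37 °C with NADP+ regenerating system, compared against solvent control without test sample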
Method: Microsomes prepared from human liver were used to extract cytochrome P450 2E1 (CYP2E1) and CYP2E1 inhibitors were screened from 39 Chinese medicine guiding drugs and 10 excipients. Chlorzoxazone hydroxylation is a reaction catalyzed primarily by CYP2E1 in liver. The extracted human liver microsomal cytochrome P450 2E1 (CYP2E1) was mixed with its substrate, Chlorzoxazone, and test sample was then added Inhibition of CYP2E1 activity was calculated by measuring CYP2E1 standard metabolite, 6-OH-CZX (6-Hydroxy-Chlorzoxazone), and compared with control 6-OH-CZX.
After incubation, 16 mM Chlorzoxazone and test samples were added to experimental groups; methanol:sterilized water at 1:1 ratio was added to control groups and DDTC was added to positive control groups,
Finally, cofactor 1 mM NADP^+, 10 mM G6P and 2 IU G6PD were added and reaction mixtures were transferred to pre-incubation 37° C. water bath for 1 mM and activity was measured after 30 min of reaction
At the end of reaction, 500 μl acetonitrile was added to stop the reaction followed by 5 g/mL 4-hydroxy-tobutamide after 1 mM incubation. The mixture was then centrifuged and 20 L of supernatant was diluted ten times with methanol/sterilized water and 5 L was used for LC/MS/MS analysis. […] The inhibition of CYP2E1 was then calculated by the following equation:

[2] = tested on: amidase; experiment: Mouse liver microsomal amidase, isoniazid to isonicotinic acid; type: biochemical
Source text: Mouse liver microsomes were used as the source of amidase, and isoniazid was used as the amidase metabolism drugs. quantitative isoniazid was catalyzed into metabolites isonicotinic acid (INA) by amidase, and was used as the index for measurement of the amidase activity for establishment of the platform for screening in vitro amidase activity inhibitors. The HPLC system includes a Shimadzu the LC-LOAD pump, 1 Shimadzu system control and a Shimadzu autosampler (Shimadzu Scientific Instrument, Japan). A C18 column (particle size 5 μm, inner diameter of 50×4.6 mm, 25 cm) containing 70% methanol and 30% ammonium formate (50 mM, pH=2.5) of the mobile phase for HPLC separation, and the experimental steps are outlined as follows:
(2) An aliquot of 150 μL mouse liver microsomal solution was added to 100 μL isoniazid solution in 35 μL 67 mM potassium phosphate buffer solution ([…], pH=7) with a final concentration at 3 mM, and then mixed thoroughly with 15 μL amidase inhibitor (deionized water was added in the control group). (3) Incubation at 37° C. water bath for 30 minutes. (4) An aliquot of 300 μL acetonitrile (ACN) was added and mixed thoroughly, and incubated for 6 minutes. (5) An aliquot of 30 μL perchloric acid was then mixed and incubated for 6 minutes. (6) The mixture was centrifuged at 13000 g for 6 minutes. (7) After centrifugation, 100 μL of the supernatant was injected into HPLC. (8) Methanol ammonium formate (50 mM, pH=2.5)=70:30 (V/V) was selected as the mobile phase, and the flow rate was controlled at […] and detected at 270 nm UV. […] The amidase inhibition % was then calculated using the following formula: […]

[3] = Table 6, minimum tested concentration (mg/L) × volume of human liver and intestine (3 L)

Chain of human liver microsomal cytochrome P450 2E1 (CYP2E1) (P05181 whole entry): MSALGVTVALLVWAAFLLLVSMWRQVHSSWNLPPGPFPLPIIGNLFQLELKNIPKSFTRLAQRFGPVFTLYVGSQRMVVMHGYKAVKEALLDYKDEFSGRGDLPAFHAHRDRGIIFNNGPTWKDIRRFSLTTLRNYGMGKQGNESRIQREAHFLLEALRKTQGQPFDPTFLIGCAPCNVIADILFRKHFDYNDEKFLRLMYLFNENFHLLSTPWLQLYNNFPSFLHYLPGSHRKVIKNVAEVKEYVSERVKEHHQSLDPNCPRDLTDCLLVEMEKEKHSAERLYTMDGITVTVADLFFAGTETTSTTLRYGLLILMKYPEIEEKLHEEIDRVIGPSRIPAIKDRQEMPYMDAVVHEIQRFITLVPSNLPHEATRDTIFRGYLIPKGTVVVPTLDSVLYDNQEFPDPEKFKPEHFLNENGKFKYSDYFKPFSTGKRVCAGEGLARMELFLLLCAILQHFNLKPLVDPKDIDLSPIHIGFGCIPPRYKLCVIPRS

| Molecule | Minimum Effective Dose [1, 3] [mg] | Amidase inhibition ([2]; 1 uM) [%] | Amidase inhibition ([2]; 10 uM) [%] | Amidase inhibition ([2]; 100 uM) [%] | further results |
| --- | --- | --- | --- | --- | --- |
| O=C/C=C/c1ccccc1 [Trans-Cinnamaldehyde] | 7 | – | – | – | – |
| Oc1cc(O)c2c(c1)O[C@H](c1cc(O)c(O)c(O)c1)[C@H](O)C2 [(−)-Epigallocatechin] | 17 | −1.2 ± 2.1 | −7.3 ± 7.6 | 2.2 ± 4.1 | Inhibition of CYP 2E1 ([1]; 16.5 μM): 38.95 ± 1.92%; Inhibition of CYP 2E1 ([1]; 33 μM): 36.40 ± 2.18%; Inhibition of CYP 2E1 ([1]; 66 μM): 57.08 ± 1.85% |
| CC12CCC(CC1)C(C)(C)O2 [Cineole] | – | −16.5 ± 17.5 | −4.7 ± 4.9 | 22.9 ± 10.4 | – |
| O=c1c(O)c(-c2cc(O)c(O)c(O)c2)oc2cc(O)cc(O)c12 [Myricetin] | 17 | 8.0 ± 4.9 | 37.8 ± 8.4 | 56.4 ± 1.5 | – |
| COc1ccc([C@@H]2CC(=O)c3c(O)cc(O[C@@H]4O[C@H](CO)[C@@H](O)[C@H](O)[C@H]4O[C@@H]4O[C@@H](C)[C@H](O)[C@@H](O)[C@H]4O)cc3O2)cc1O [Neohesperidin] | 33 | – | – | – | Inhibition of CYP 2E1 ([1]; 16.5 μM): 42.81 ± 1.75%; Inhibition of CYP 2E1 ([1]; 33 μM): 48.96 ± 2.37%; Inhibition of CYP 2E1 ([1]; 66 μM): 58.70 ± 1.06% |
| CCCCCCCCCCCCCC(=O)OCC [Ethyl Myristate] | 14 | – | – | – | – |
| O=C([O-])c1ccccc1.[Na+] [Sodium benzoate] | – | – | – | – | Inhibition of CYP 2E1 ([1]; 0.08% (w/v)): 7.8 ± 4.1%; Inhibition of CYP 2E1 ([1]; 0.167% (w/v)): 15.8 ± 0.9%; Minimum Effective Dose ([1]; Table 7): 9 mg; Inhibition of CYP 2E1 ([1]; […] (w/v)): 7.1 ± 2.0% |
| O=c1cc(-c2ccccc2)oc2c1ccc1ccccc12 [α-Naphthoflavone] | – | 7.3 ± 7.9 | 19.3 ± 3.7 | 36.9 ± 2.7 | – |
| O=c1c(-c2ccc(O)cc2)coc2cc(O[C@@H]3O[C@H](CO)[C@@H](O)[C@H](O)[C@H]3O)ccc12 [Daidzin] | – | 3.6 ± 3.0 | 1.1 ± 5.4 | 7.4 ± 6.3 | – |
| COc1cc(/C=C/C(=O)CC(=O)/C=C/c2ccc(O)c(OC)c2)ccc1O [Curcumin] | – | 16.9 ± 11.0 | 16.1 ± 0.4 | 9.7 ± 6.0 | – |
| COc1ccc(-c2cc(=O)c3c(O)cc(O)c(-c4cc(-c5cc(=O)c6c(O)cc(OC)cc6o5)ccc4OC)c3o2)cc1 [Sciadopitysin] | – | 10.3 ± 3.8 | 20.7 ± 6.0 | 20.6 ± 19.3 | – |
| O=[N+]([O-])c1ccc(OP(=O)(O)Oc2ccc([N+](=O)[O-])cc2)cc1 [BNPP, bis-p-nitrophenyl phosphate, reference compound] | – | – | – | – | Amidase inhibition ([2]; positive control, own concentration not given): 92.1 ± 8.7% |
| O=C1C[C@@H](c2ccc(O[C@@H]3O[C@H](CO)[C@@H](O)[C@H](O)[C@H]3O)cc2)Oc2cc(O)ccc21 [Liquiritin] | – | 2.5 ± 2.9 | −7.5 ± 13.4 | 12.5 ± 8.3 | – |
| COc1ccc(-c2cc(=O)c3c(OC)c(OC)c(OC)cc3o2)cc1OC [Sinensetin] | – | −0.8 ± 3.0 | 6.6 ± 0.5 | 9.7 ± 0.9 | – |
| COc1ccc([C@@H]2CC(=O)c3c(O)cc(O[C@@H]4O[C@H](CO[C@@H]5O[C@@H](C)[C@H](O)[C@@H](O)[C@H]5O)[C@@H](O)[C@H](O)[C@H]4O)cc3O2)cc1O [Hesperidin] | 33 | – | – | – | Inhibition of CYP 2E1 ([1]; 16.5 μM): 45.32 ± 1.57%; Inhibition of CYP 2E1 ([1]; 33 μM): 50.91 ± 2.81%; Inhibition of CYP 2E1 ([1]; 66 μM): 58.57 ± 3.78% |
| C[C@@H]1O[C@@H](OC[C@H]2O[C@@H](Oc3cc(O)c4c(c3)O[C@H](c3ccc(O)c(O)c3)CC4=O)[C@H](O)[C@@H](O)[C@@H]2O)[C@H](O)[C@H](O)[C@H]1O [Eriocitrin] | – | −16.1 ± 12.8 | 19.0 ± 3.0 | 32.8 ± 1.9 | – |
| CC1(C)[C@@H](O[C@H]2O[C@H](C(=O)O)[C@@H](O)[C@H](O)[C@H]2O[C@@H]2O[C@H](C(=O)O)[C@@H](O)[C@H](O)[C@H]2O)CC[C@]2(C)[C@H]3C(=O)C=C4[C@@H]5C[C@@](C)(C(=O)O)CC[C@]5(C)CC[C@@]4(C)[C@]3(C)CC[C@@H]12 [Glycyrrhizin] | – | −1.3 ± 3.1 | 4.3 ± 11.3 | 24.4 ± 12.7 | – |
| CC1(C)CC[C@]2(C(=O)O)CC[C@]3(C)C(=CC[C@@H]4[C@@]5(C)CC[C@H](O)C(C)(C)[C@@H]5CC[C@]43C)[C@@H]2C1 [Oleanolic Acid] | – | 20.3 ± 5.2 | 14.8 ± 3.4 | 24.5 ± 4.0 | – |
| COc1cc(C2Oc3cc([C@H]4Oc5cc(O)cc(O)c5C(=O)[C@@H]4O)ccc3OC2CO)ccc1O (stereo partly drawn) [Silybin] | 26 | – | – | – | – |
| C[C@@H]1O[C@@H](OC[C@H]2O[C@@H](Oc3c(-c4ccc(O)c(O)c4)oc4cc(O)cc(O)c4c3=O)[C@H](O)[C@@H](O)[C@@H]2O)[C@H](O)[C@H](O)[C@H]1O [Rutin] | 33 | – | – | – | – |

| Molecule | Minimum Effective Dose [1, 3] [mg] | Amidase inhibition ([2]; 1 uM) [%] | Amidase inhibition ([2]; 10 uM) [%] | Amidase inhibition ([2]; 100 uM) [%] | further results |
| --- | --- | --- | --- | --- | --- |
| O=c1cc(-c2ccc(O)cc2)oc2c([C@@H]3O[C@H](CO)[C@@H](O)[C@H](O)[C@H]3O)c(O)cc(O)c12 [Vitexin] | 24 | – | – | – | – |
| Oc1cc(O)c2c(c1)O[C@@H](c1ccc(O)c(O)c1)[C@@H](O)C2 [(+)-Epicatechin] | 16 | – | – | – | Inhibition of CYP 2E1 ([1]; 16.5 μM): 66.71 ± 1.79%; Inhibition of CYP 2E1 ([1]; 33 μM): 52.32 ± 1.59% |
| O=C(O[C@@H]1Cc2c(O)cc(O)cc2O[C@@H]1c1cc(O)c(O)c(O)c1)c1cc(O)c(O)c(O)c1 [(−)-Epigallocetechin-3-gallate] | – | – | – | – | Inhibition of CYP 2E1 ([1]; 16.5 μM): 50.19 ± 1.89%; Inhibition of CYP 2E1 ([1]; 33 μM): 60.53 ± 2.06%; Inhibition of CYP 2E1 ([1]; 66 μM): 72.16 ± 1.02% |
| O=c1c(O)c(-c2ccccc2)oc2cc(O)cc(O)c12 [Galangin] | – | 9.6 ± 9.9 | 32.8 ± 4.4 | 61.5 ± 2.7 | – |
| COc1ccc(-c2cc(=O)c3c(O)c(OC)c(OC)cc3o2)cc1O [Eupatorin] | – | 0.9 ± 2.8 | 7.5 ± 0.7 | 12.0 ± 7.4 | – |
| O=C(/C=C/c1ccc(O)cc1)c1ccc(O)cc1O [Isoliquritigenin] | – | −18.7 ± 26.0 | 17.7 ± 8.3 | 57.2 ± 8.5 | – |
| COc1cc(-c2cc(=O)c3c(O)cc(O)cc3o2)ccc1O [Chrysoeriol] | – | 7.7 ± 7.1 | 24.9 ± 11.2 | 23.2 ± 1.2 | – |
| CC(C)[C@@H](C)/C=C/[C@@H](C)[C@H]1CC[C@H]2C3=CC=C4C[C@@H](O)CC[C@]4(C)[C@H]3CC[C@]12C [Ergosterol] | – | 4.3 ± 10.7 | −0.4 ± 10.7 | 0.4 ± 3.6 | – |
| O=C1C[C@@H](c2ccc(O)c(O)c2)Oc2cc(O)cc(O)c21 [Eriodictyol] | – | 9.0 ± 4.7 | 6.5 ± 11.3 | 22.3 ± 4.7 | – |
| CCCCCCCCCCCCO [Lauryl Alcohol] | – | 2.2 ± 3.1 | −0.7 ± 1.5 | 4.1 ± 4.3 | – |
| C[C@@H]1O[C@@H](Oc2c(-c3ccc(O)c(O)c3)oc3cc(O)cc(O)c3c2=O)[C@H](O)[C@H](O)[C@H]1O [Quercitrin] | 24 | – | – | – | – |
| O=c1c(O)c(-c2ccc(O)c(O)c2)oc2cc(O)ccc12 [Fisetin] | – | −9.2 ± 2.5 | 38.3 ± 2.0 | 56.4 ± 2.9 | – |
| (−)-Epicatechin-3-gallate | 24 | – | – | – | Inhibition of CYP 2E1 ([1]; 16.5 μM): 30.31 ± 1.27%; Inhibition of CYP 2E1 ([1]; 33 μM): 34.84 ± 1.72%; Inhibition of CYP 2E1 ([1]; 66 μM): 42.92 ± 0.65% |
| COc1ccc(O)c(C(C)(C)C)c1 [Butylated hydroxyl anisol] | – | – | – | – | Inhibition of CYP 2E1 ([1]; 16.5 μM): −16.8 ± 0.5%; Inhibition of CYP 2E1 ([1]; 33 μM): −47.1 ± 5.1%; Inhibition of CYP 2E1 ([1]; 66 μM): −85.5 ± 3.9%; Minimum Effective Dose ([1]; Table 7): 9 mg |
| O=c1cc(-c2ccc(O)c(O)c2)oc2cc(O)c([C@@H]3O[C@H](CO)[C@@H](O)[C@H](O)[C@H]3O)c(O)c12 [Homoorientin] | – | 7.4 ± 3.8 | 3.5 ± 0.9 | 18.0 ± 2.6 | – |
| O=S(=O)([O-])NC1CCCCC1.[Na+] [Sodium cyclamate] | – | – | – | – | Inhibition of CYP 2E1 ([1]; 16.5 μM): 9.4 ± 2.7%; Inhibition of CYP 2E1 ([1]; 33 μM): 1.7 ± 4.7%; Inhibition of CYP 2E1 ([1]; 66 μM): 9.1 ± 2.6% |
| O=c1c(O[C@@H]2O[C@H](CO)[C@H](O)[C@H](O)[C@H]2O)c(-c2ccc(O)c(O)c2)oc2cc(O)cc(O)c12 [Hyperoside] | 25 | – | – | – | – |
| Magnesium stearate | – | – | – | – | Inhibition of CYP 2E1 ([1]; 16.5 μM): 2.0 ± 1.0%; Inhibition of CYP 2E1 ([1]; 33 μM): 3.0 ± 0.7%; Inhibition of CYP 2E1 ([1]; 66 μM): 5.0 ± 1.6% |
| COc1ccc([C@@H]2CC(=O)c3c(O)cc(O[C@@H]4O[C@H](CO)[C@@H](O)[C@H](O)[C@H]4O[C@@H]4O[C@@H](C)[C@H](O)[C@@H](O)[C@H]4O)cc3O2)cc1 [Poncirin] | – | 10.8 ± 3.8 | 8.1 ± 11.7 | 17.3 ± 5.8 | – |
